Assay results published in PMC5963591, “Bitopic Binding Mode of an M1 Muscarinic Acetylcholine Receptor Agonist Associated with Adverse Clinical Trial Outcomes” (Molecular Pharmacology, 2018).

Legend:
[1] = target: T1, human M1 mAChR (Homo sapiens, UniProt P11229); assay: IP-One (IP1) accumulation assay, CHO Flp-In human M1 cells; assay type: cell-based; parameters: expressed in transfected cells; host or cells: CHO Flp-In
T1 sequence (P11229 1-460): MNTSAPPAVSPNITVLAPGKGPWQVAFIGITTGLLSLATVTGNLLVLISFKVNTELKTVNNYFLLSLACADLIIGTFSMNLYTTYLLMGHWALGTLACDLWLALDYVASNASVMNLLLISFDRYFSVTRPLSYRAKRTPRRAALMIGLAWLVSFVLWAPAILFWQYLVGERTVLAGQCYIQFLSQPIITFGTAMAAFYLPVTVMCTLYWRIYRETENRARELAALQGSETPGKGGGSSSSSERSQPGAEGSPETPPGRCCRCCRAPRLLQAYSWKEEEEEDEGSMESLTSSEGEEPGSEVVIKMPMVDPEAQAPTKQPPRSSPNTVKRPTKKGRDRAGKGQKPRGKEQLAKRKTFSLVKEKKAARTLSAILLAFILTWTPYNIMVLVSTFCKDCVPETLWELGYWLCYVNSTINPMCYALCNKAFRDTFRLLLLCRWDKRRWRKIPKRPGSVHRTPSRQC
Description: Stimulation of IP accumulation was determined using the Cisbio IP-One Gq assay kit per the manufacturer’s instructions. […] CHO Flp-In cells stably expressing the human M1 mAChR were grown to confluence in T75 cell culture flasks at 37°C. Cells were washed with warm phosphate-buffered saline and detached using phosphate-buffered saline with 0.1 M EDTA. Detached cells were centrifuged at 1000g and the cells were resuspended in stimulation buffer.
All IP-One stimulations were terminated by the addition of 3 μl/well IP1-d2 solution, followed by 3 μl/well anti–IP1-cryptate solution and incubation for 1 hour at room temperature with shaking.
Functional concentration-response curves were fitted according to a four-parameter logistic equation (to determine minimum and maximum asymptotes, LogEC50, and slope; GraphPad Prism 6). […] In the absence of antagonist ([B] = 0), this equation becomes the standard four-parameter logistic equation for fitting agonist concentration-response data.

[2] = target: T1, human M1 mAChR; assay: Kinetic [3H]-NMS binding (dissociation) in membranes; parameters: expressed in transfected cells; host or cells: CHO Flp-In; settings: compound 10 μM plus atropine 10 μM
Description: Reactions were terminated by rapid filtration onto GF/B filter paper (Whatman, Maidstone, UK) and three washes with 3 ml ice-cold 0.9% NaCl using a Brandel harvester (M-24TI; Brandel, Fort Lauderdale, FL). Membrane bound radioactivity was determined by liquid scintillation (Ultima Gold; PerkinElmer) counting.

[3] = target: T1, human M1 mAChR; settings: 20 nM [^3H]-GSK1034702
[4] = system: wild-type M1 mAChR; assay: Agonist bias analysis, IP1 versus ERK1/2 phosphorylation (operational model); assay type: cell-based, human; settings: reference ligand ACh
Description: (§1) For the analysis, all families of agonist curves at each pathway were globally fitted to the model with the parameters, basal, Em, and n shared between all agonists. For full agonists, the LogKA was constrained to a value of zero, whereas for partial agonists this was directly estimated by the curve fitting procedure; the Log(τ/KA) parameter was estimated as a unique measure of activity for each agonist.

[5] = Mouse pharmacokinetics, unbound plasma and brain concentrations; assay type: in vivo; settings: mice, 30 minutes after i.p. administration
Description: Pharmacokinetic analyses were conducted as previously described ([Witkin et al., 2017]). Compounds were administered via intraperitoneal injection (in 5% glucose) 30 minutes prior to blood collection. Mice were anesthetized with 3% isoflurane (2 l/min), and blood was collected by cardiac puncture of the left ventricle. Blood was immediately transferred to EDTA tubes and centrifuged at 1000g for 10 minutes at 4°C; the supernatant was collected and frozen. Brains from each mouse were also dissected and snap-frozen on dry ice.
Brain samples were homogenized in three volumes of methanol/water [1:4 (v/v)] by weight. A 25-μl aliquot of each study sample, calibration standard, and control sample was added to a 96-well plate and mixed with 180 μl acetonitrile/methanol [1:1 (v/v)] containing internal standard. The samples were subsequently centrifuged, and the resulting supernatants were diluted 12.5-fold with methanol/water [1:1 (v/v)] prior to analyzing 10-μl aliquots by liquid chromatography–tandem mass spectrometry as previously described ([Bradley et al., 2017]).

[6] = target: T2, human M1 receptor (Homo sapiens, UniProt P11229); assay: ERK1/2 phosphorylation, CHO Flp-In human M1 cells; assay type: cell-based
T2 construct: expressed in transfected cells; host or cells: CHO Flp-In
T2 sequence (P11229 1-460): T1 sequence (P11229 1-460)
Description: CHO Flp-In cells stably expressing the human M1 receptor were seeded onto transparent 96-well plates at 20,000 cells/well and grown to confluence. Cells were serum starved overnight prior to the experiment. Prior to the stimulations, cells were washed with 100 μl phosphate-buffered saline and then incubated in serum free F12 medium at 37°C. Cells were stimulated with ligands for 5 minutes at 37°C in a final volume of 200 μl. The stimulations were terminated by rapid aspiration and addition of 50 μl lysis buffer supplemented with blocking reagent per the manufacturer’s instructions, followed by gentle agitation at room temperature for 30 minutes. Subsequently, 16 μl of this lysate was transferred to a 384-well white ProxiPlate (PerkinElmer) and incubated with 4 μl premixed antibody solution for 2 hours at room temperature.
as §1

[7] = system: C57Bl/6J mice; assay: Contextual fear conditioning, scopolamine-induced deficit; assay type: in vivo, mouse; settings: for shape of the dose response on learning and memory: escalating i.p. doses with scopolamine […]
Description: C57Bl/6J male mice (aged 8–12 weeks) were acclimatized to the behavioral testing suite at least 2 hours prior to the test. […] Mice were placed in the conditioning chamber (ANY-maze Fear Conditioning System; Stoelting, Dublin, Ireland); after a 2-minute adaptation period, they received three tone/foot shock pairings where the foot shock (unconditioned stimulus; 2 seconds; 0.4 mA) always co-terminated with a tone (conditioned stimulus; 2.8 kH; 85 dB; 30 seconds). The conditioned stimulus–unconditioned stimulus pairings were separated by 1-minute intervals. After the mice completed training, they remained in the conditioning chamber for 1 minute and were then returned to their home cages. The next day, the mice were placed back in the conditioning chamber, and time spent immobile was recorded for 3 minutes to assess context-dependent learning. Data were analyzed using ANY-maze software (Stoelting).

[8] = system: patients with AD; parameters: method as in Bodick et al., 1997; settings: ref Bodick et al., 1997; cited from earlier work
[9] = system: murine prion disease; settings: doses that rescued learning and memory, ref Bradley et al., 2017; cited from earlier work
[10] = target: T1, human M1 mAChR; assay: IP1 accumulation after receptor alkylation with phenoxybenzamine (functional interaction with ACh); settings: phenoxybenzamine 3 μM for 30 minutes, CHO Flp-In cells
[11] = normalized to reference ligand ACh
[12] = transduction coefficient, wild-type M1 mAChR

SMILES: Cc1ccccc1CN1CCC(N2CCC(n3c(=O)[nH]c4ccccc43)CC2)CC1 [TBPB, 1-[1′-(2-methylbenzyl)-1,4′-bipiperidin-4-yl]-1,3-dihydro-2H-benzimidazol-2-one, reference compound]
- IP1 Emax ([1]; CHO Flp-In human M1 cells): 55.2 ± 3.1
- IP1 Accumulation ΔLog10(τ/KA) [1, 11]: 1.1 ± 0.2
- IP1 Accumulation Log10(τ/KA) [1, 12]: 8.2 ± 0.2
- effect on the [^3H]-NMS dissociation rate [2]: no effect
- displacement of specific [^3H]-GSK1034702 binding [3]: fully displaced
- Log Bias Factor IP1 – ERK1/2 ΔΔLog10(τ/KA) [4]: 1.4 ± 0.2
- free brain concentration versus dose [5]: could not be increased beyond that observed at 10 mg/kg
- ERK1/2 Phosphorylation ΔLog10(τ/KA) [6, 11]: −0.3 ± 0.4
- ERK1/2 Phosphorylation Log10(τ/KA) [6, 12]: 6.9 ± 0.4
- shape of the dose response on learning and memory [7]: no evidence of a bell-shaped dose response

SMILES: CCCCCCOc1nsnc1C1=CCCN(C)C1 [Xanomeline, xanomeline]
- effect on cognitive function [8]: significantly improved cognitive function
- Log Bias Factor IP1 – ERK1/2 ΔΔLog10(τ/KA) [4]: 1.1 ± 0.1
- free brain concentration versus dose [5]: increase linearly with escalating doses
- shape of the dose response on learning and memory [7]: bell shaped
- adverse responses [9]: gave adverse responses consistent with the activation of other muscarinic receptor subtypes

SMILES: CC(=O)OCC[N+](C)(C)C [ACh, acetylcholine]
- Log Bias Factor IP1 – ERK1/2 ΔΔLog10(τ/KA) [4]: 0.0 ± 0.1

SMILES: CC(COc1ccccc1)N(CCCl)Cc1ccccc1 (stereo not drawn) [Phenoxybenzamine, phenoxybenzamine, reference compound]
- reduction of the functional human M1 mAChR population [10]: approximately 80%

SMILES: CN1[C@@H]2C[C@@H](OC(=O)[C@H](CO)c3ccccc3)C[C@H]1[C@@H]1O[C@@H]12 [scopolamine]
- effect on contextual fear conditioning learning and memory ([7]; doses above 1 mg/kg, 30 minutes prior to training): significant reduction in contextual fear conditioning learning and memory
